Source: patent US7252944B2, “Methods and compositions for modulating cell proliferation” (IRM LLC, priority 2003, dated 2007)

How the values were obtained:
[1] = test system: hog1-as1 mutant strain (hog1-27); assay: Genome-wide expression analysis, hog1-as1 mutant strain under salt; type: cell-based, Saccharomyces cerevisiae; conditions: MUTS+1-NM-PP1 versus MUTS+DMSO; 1-NM-PP1 2 μM, 0.9 M NaCl
Experimental: (§1) Genome-wide expression analysis: Total RNA preparation from hog1-27 strain was performed as described previously (Holstege et al., Cell 95, 717-28, 1998). To monitor the changes in expression caused by specific inhibition of Hog1 kinase, cultures of either wt or hog1-27 were incubated with 1-NM-PP1 (2 μM) for 30 minutes before harvesting (for control, 0.002% DMSO was added). To monitor the effect of osmotic stress, sodium chloride was added into either inhibitor-treated or DMSO-treated cultures to a final concentration of 0.9 M.
(§2) The preparation of probe and the procedure for microassay experiments was performed as described in the literature. The output files from the scanner were uploaded into the GNF chip informatics server and expression profiles were analyzed using a built-in analysis program, ANOVA. Search for the common transcriptional regulatory elements was done using the promoter database of Saccharomyces cerevisiae at the Cold Spring Harbor Laboratory.
For DNA micro-array experiments, total RNAs were isolated from both the wt strain and the hog1-as1 mutant strain (hog1-27) treated with DMSO (WT+DMSO, MUT+DMSO), salt and DMSO (WTS+DMSO, MUTS+DMSO), salt and inhibitor (WTS+1-NM-PP1, MUTS+1-NM-PP1). For each experiment, RNA samples were prepared in duplicates, followed by the preparation of the corresponding biotinylated cRNA probes and hybridized to Yeast Genome S98 arrays (Affymetrix). Two expression profiles were first examined between duplicate samples to ensure reproducibility and the whole procedure was repeated three times. […] To analyze the number of genes affected by salt addition, expression profiles of MUTS+DMSO versus MUT+DMSO were compared by ANOVA (Brazma and Vilo, 2000). The expressions of 874 genes in the mutant strain were changed more than 2.5 fold by the addition of salt. Thus, the analysis covered almost the full complement of genes known to be affected by osmotic stress.
The effect of inhibition in the hog1-as1 mutant strain was examined by comparing the expression profiles of MUTS+1-NM-PP1 versus MUTS+DMSO. […]

wt strain = assay: Genome-wide expression analysis, wt strain under salt; type: cell-based, Saccharomyces cerevisiae; conditions: 1-NM-PP1 2 μM, 0.9 M NaCl
Experimental: as §1, §2
For DNA micro-array experiments, total RNAs were isolated from both the wt strain and the hog1-as1 mutant strain (hog1-27) treated with DMSO (WT+DMSO, MUT+DMSO), salt and DMSO (WTS+DMSO, MUTS+DMSO), salt and inhibitor (WTS+1-NM-PP1, MUTS+1-NM-PP1). […]

SHMT = conditions: background statement; cited from earlier work
SHMT1 [2] = assay: SHMT1 activity immunoprecipitated from sorbitol-stimulated SHMT1-HEK293 cells; type: cell-based, human; conditions: serum-starved SHMT1-HEK293 cells, 0.3 M sorbitol, 15 or 30 min; FIG. 3
Experimental: Transfection and retroviral infection: SHMT1 (human homolog of yeast Shm2) with a C-terminal myc tag was cloned into pBabe puro plasmid and was transiently transfected into Bosc 23 cells using Effectene (Qiagen) as manufacturer's protocol. The harvested retroviruses was added to 5×10^5 HEK-293 cells for infection. After 48 hours the infected cells were selected in the presence of 2.5 µg/mL of puromycin. SHMT1-HEK293 cells were cultured in DMEM with 10% Bovine Calf Serum (BCS) and were serum-starved for 24 hr in DMEM with 0.5% BCS.
Transient transfection and SHMT1 assay: MKK6b was cloned into pcDNA6Hismyc B vector (Invitrogen) and MKK6b-EE was further generated using Quick change protocol (Stratagene). Transient transfection of MKK6b-EE into SHMT1-HEK 293 cells was carried using Lipofectamine 2000 (Invitrogen) according to the manufacturer's protocol. […] SHMT1 or phosphorylated form of p38α was detected by immunobloting with either c-myc antibody (Santa Cruz) or phospho-p38 antibody (Cell Signal) using West pico supersignal kit (Pierce).
Finally, to investigate whether SHMT1 was also an in vivo target of p38 MAP kinase, myc-tagged SHMT1 expressing HEK 293 stable cells were generated. […] SHMT1 was immunoprecipitated at different time points after stimulation and its enzymatic activity was measured as described above. […]

SHMT1 [3] = target: T1, SHMT1 (Homo sapiens, UniProt P34896); assay: SHMT1 enzymatic assay after phosphorylation by p38; type: biochemical; conditions: stated as in vitro; FIG. 4
T1 construct: expressed in transfected cells; host or cells: HEK-293 cells, retroviral infection with pBabe puro and puromycin selection (SHMT1-HEK293)
T1 sequence (P34896 1-483): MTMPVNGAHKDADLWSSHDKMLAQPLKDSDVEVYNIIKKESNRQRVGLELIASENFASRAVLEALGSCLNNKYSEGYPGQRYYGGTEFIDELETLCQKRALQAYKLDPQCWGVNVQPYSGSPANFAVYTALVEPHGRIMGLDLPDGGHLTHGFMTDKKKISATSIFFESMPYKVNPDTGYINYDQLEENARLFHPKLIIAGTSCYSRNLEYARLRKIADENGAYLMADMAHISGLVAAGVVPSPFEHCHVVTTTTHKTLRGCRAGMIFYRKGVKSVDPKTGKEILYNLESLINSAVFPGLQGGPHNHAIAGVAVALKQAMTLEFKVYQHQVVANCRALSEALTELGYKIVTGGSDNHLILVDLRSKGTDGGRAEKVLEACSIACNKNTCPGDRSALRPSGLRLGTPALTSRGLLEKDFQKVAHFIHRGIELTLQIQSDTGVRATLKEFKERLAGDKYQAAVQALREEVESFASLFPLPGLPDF
Experimental: (§3) Enzymatic assay for serine hydroxymethyltransferase 2 (Shm2): GST-Shm2 was purified from a yeast strain as described above and its enzymatic activity was measured as described earlier (Krishna Rao et al., Biochem J 343 Pt 1, 257-63, 1999) with minor modifications. To measure the effect of either Hog1-as1 or p38 kinases, Shm2 enzyme was pre-incubated with each kinase in presence of either 1 mM PE-ATP (for Hog1-as1) or 1 mM ATP (for p38) for 30 min at RT before adding to the reaction mixture.
Transient transfection and SHMT1 assay: MKK6b was cloned into pcDNA6Hismyc B vector (Invitrogen) and MKK6b-EE was further generated using Quick change protocol (Stratagene). Transient transfection of MKK6b-EE into SHMT1-HEK 293 cells was carried using Lipofectamine 2000 (Invitrogen) according to the manufacturer's protocol. Immunoprecipitation procedure for SHMT1 from transfected cells was described previously (Shah and Shokat, Chem Biol 9, 35-47, 2002). SHMT1 enzymatic assay was carried out exactly as Shm2 assay as described above. SHMT1 or phosphorylated form of p38α was detected by immunobloting with either c-myc antibody (Santa Cruz) or phospho-p38 antibody (Cell Signal) using West pico supersignal kit (Pierce).

Shm2 = target: T2, Shm2 (Saccharomyces cerevisiae, UniProt P37291); assay: Enzymatic assay for serine hydroxymethyltransferase 2 (Shm2) after pre-incubation with kinase; type: biochemical; conditions: in vitro; pre-incubation with p38α and 1 mM ATP, 30 min RT; FIG. 2D
T2 construct: made in house; host or cells: Saccharomyces cerevisiae
T2 sequence (P37291 1-469): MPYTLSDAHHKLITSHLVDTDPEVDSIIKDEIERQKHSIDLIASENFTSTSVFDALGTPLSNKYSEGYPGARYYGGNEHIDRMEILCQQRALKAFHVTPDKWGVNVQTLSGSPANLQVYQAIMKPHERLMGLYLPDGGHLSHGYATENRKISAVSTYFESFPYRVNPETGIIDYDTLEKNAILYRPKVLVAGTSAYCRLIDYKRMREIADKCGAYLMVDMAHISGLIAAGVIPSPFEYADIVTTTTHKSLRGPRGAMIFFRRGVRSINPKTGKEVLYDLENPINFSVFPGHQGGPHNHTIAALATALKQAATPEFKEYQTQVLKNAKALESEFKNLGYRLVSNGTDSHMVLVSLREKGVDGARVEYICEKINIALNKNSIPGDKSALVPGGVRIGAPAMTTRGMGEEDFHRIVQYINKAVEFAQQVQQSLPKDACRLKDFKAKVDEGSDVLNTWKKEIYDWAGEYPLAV
Experimental: as §3
To determine Shm2 activity, we measured the transfer of C^14-labeled one-carbon unit as described in the Krishna Rao et al., Biochem J 343 Pt 1, 257-63, 1999. In order to estimate the effect of phosphorylation, Shm2 was pre-incubated with or without Hog 1 kinase, prior to the C^14 transfer reaction.

For `CC(C)(C)n1nc(Cc2cccc3ccccc23)c2c(N)ncnc21` [1-NM-PP1], the “number of genes affected more than 2-fold by addition of inhibitor” value [1] was 96 genes, the “number of genes downregulated by addition of inhibitor” value [1] was 81 genes and the “number of genes upregulated by addition of inhibitor” value [1] was 15 genes. For the same compound, the “number of genes affected by addition of inhibitor” value (wt strain) was 11 genes.
In the case of `CN(Cc1cnc2nc(N)nc(N)c2n1)c1ccc(C(=O)N[C@@H](CCC(=O)O)C(=O)O)cc1` [methotrexate], the “inhibition of SHMT activity” value (SHMT) is given as “failed to inhibit SHMT activity significantly”.
With `OC[C@@H](O)[C@@H](O)[C@H](O)[C@@H](O)CO` [sorbitol] the “SHMT1 enzymatic activity after sorbitol treatment” value (SHMT1 [2]) was “decreased activity of SHMT1”.
With “p38 MAP kinase: Active p38α MAP kinase purchased from Upstate Inc.; human homolog of Hog1” the “modulation of SHMT1 enzymatic activity upon phosphorylation” value (SHMT1 [3]) was 30% and the “modulation of Shm2 enzymatic activity upon phosphorylation” value (Shm2) was roughly 50%.
